Data as given in ChEMBL document CHEMBL1153239, “1-(3-Aryloxyaryl)benzimidazole sulfones are liver X receptor agonists” (Bioorg Med Chem Lett, 2010).

Assay: AUC (0 to last) in C57 mouse at 10 mg/kg, po
Type: ADME, organism-based
Parameters: time 0 - last, dose 10 mg/kg, route oral
Conditions: plasma

SMILES | AUC(0-t)
Cc1nc2c(C(F)(F)F)cccc2n1-c1cccc(Oc2cccc(S(=O)(=O)C(C)C)c2)c1 | 1290 ng·h/mL
Cc1nc2c(C(F)(F)F)cccc2n1-c1cccc(Oc2cccc(S(C)(=O)=O)c2)c1 | 12900 ng·h/mL
CS(=O)(=O)c1cccc(Oc2cccc(-n3c(C(F)(F)F)nc4c(C(F)(F)F)cccc43)c2)c1 | 14300 ng·h/mL
CS(=O)(=O)c1cccc(Oc2cccc(-n3cnc4c(C(F)(F)F)cccc43)c2)c1 | 12100 ng·h/mL
CCc1nc2c(C(F)(F)F)cccc2n1-c1cccc(Oc2cccc(S(C)(=O)=O)c2)c1 | 1780 ng·h/mL

Results, then the compound that gave them:

AUC(0-t) | SMILES
2940 ng·h/mL | CCS(=O)(=O)c1cccc(Oc2cccc(-n3c(C)nc4c(C(F)(F)F)cccc43)c2)c1
1500 ng·h/mL | Cc1nc2c(Cl)cccc2n1-c1cccc(Oc2cccc(S(C)(=O)=O)c2)c1
1780 ng·h/mL | CCS(=O)(=O)c1cccc(Oc2cccc(-n3c(C)nc4c(Cl)cccc43)c2)c1
